Data reported in the NIST ThermoML archive (doi:10.1021/je200811n).
± gives the expanded uncertainty stated by the source.

Conditions: Hot wire method

For F/C=C/C(F)(F)F [trans-1,3,3,3-tetrafluoropropene], the thermal conductivity (293.73 K, 303 kPa, Gas) was 0.01311 ± 0.00045 W/m/K, the thermal conductivity (293.77 K, 95 kPa, Gas) was 0.0133 ± 0.00045 W/m/K and the thermal conductivity (293.85 K, 231 kPa, Gas) was 0.01317 ± 0.00045 W/m/K. It also gave a thermal conductivity (293.9 K, 400 kPa, Gas) of 0.01318 ± 0.00045 W/m/K, a thermal conductivity (294.04 K, 155 kPa, Gas) of 0.01319 ± 0.00045 W/m/K and a thermal conductivity (294.06 K, 345 kPa, Gas) of 0.01312 ± 0.00045 W/m/K. It also gave a thermal conductivity (294.27 K, 95 kPa, Gas) of 0.01329 ± 0.00045 W/m/K, a thermal conductivity (294.45 K, 343 kPa, Gas) of 0.01318 ± 0.00045 W/m/K and a thermal conductivity (301.02 K, 868 kPa, Liquid) of 0.07405 ± 0.00082 W/m/K. The thermal conductivity (301.09 K, 873 kPa, Liquid) was 0.07375 ± 0.00082 W/m/K, the thermal conductivity (301.25 K, 21041 kPa, Liquid) was 0.08609 ± 0.00095 W/m/K and the thermal conductivity (301.27 K, 15433 kPa, Liquid) was 0.08285 ± 0.00091 W/m/K. For the same compound, the thermal conductivity (301.28 K, 15438 kPa, Liquid) was 0.08293 ± 0.001 W/m/K, the thermal conductivity (301.32 K, 10268 kPa, Liquid) was 0.07996 ± 0.00088 W/m/K and the thermal conductivity (301.32 K, 21030 kPa, Liquid) was 0.08586 ± 0.00094 W/m/K. For the same compound, the thermal conductivity (301.33 K, 5341 kPa, Liquid) was 0.07696 ± 0.00085 W/m/K, the thermal conductivity (301.35 K, 15435 kPa, Liquid) was 0.08267 ± 0.00092 W/m/K and the thermal conductivity (301.36 K, 15436 kPa, Liquid) was 0.08267 ± 0.00092 W/m/K. The thermal conductivity (301.39 K, 877 kPa, Liquid) was 0.07371 ± 0.00082 W/m/K, the thermal conductivity (301.4 K, 10267 kPa, Liquid) was 0.07978 ± 0.00088 W/m/K and the thermal conductivity (301.41 K, 810 kPa, Liquid) was 0.07351 ± 0.00082 W/m/K. For the same compound, the thermal conductivity (301.41 K, 5340 kPa, Liquid) was 0.07676 ± 0.00085 W/m/K, the thermal conductivity (301.47 K, 877 kPa, Liquid) was 0.07359 ± 0.00082 W/m/K and the thermal conductivity (301.48 K, 201 kPa, Gas) was 0.01405 ± 0.00048 W/m/K. For the same compound, the thermal conductivity (301.5 K, 101 kPa, Gas) was 0.01387 ± 0.00047 W/m/K, the thermal conductivity (301.5 K, 812 kPa, Liquid) was 0.07342 ± 0.00082 W/m/K and the thermal conductivity (301.64 K, 15430 kPa, Liquid) was 0.0828 ± 0.00091 W/m/K. The thermal conductivity (301.69 K, 10267 kPa, Liquid) was 0.07986 ± 0.00088 W/m/K, the thermal conductivity (301.7 K, 201 kPa, Gas) was 0.01393 ± 0.00047 W/m/K and the thermal conductivity (301.71 K, 21026 kPa, Liquid) was 0.08586 ± 0.00094 W/m/K. For the same compound, the thermal conductivity (301.72 K, 5338 kPa, Liquid) was 0.07673 ± 0.00085 W/m/K, the thermal conductivity (301.73 K, 101 kPa, Gas) was 0.01377 ± 0.00047 W/m/K and the thermal conductivity (301.74 K, 15425 kPa, Liquid) was 0.08254 ± 0.00091 W/m/K. The thermal conductivity (301.75 K, 15438 kPa, Liquid) was 0.08085 ± 0.00089 W/m/K, the thermal conductivity (301.8 K, 875 kPa, Liquid) was 0.07346 ± 0.00081 W/m/K and the thermal conductivity (301.81 K, 10267 kPa, Liquid) was 0.07952 ± 0.00088 W/m/K. For the same compound, the thermal conductivity (301.82 K, 21035 kPa, Liquid) was 0.08546 ± 0.00094 W/m/K, the thermal conductivity (301.83 K, 5339 kPa, Liquid) was 0.07652 ± 0.00085 W/m/K and the thermal conductivity (301.9 K, 871 kPa, Liquid) was 0.07331 ± 0.00081 W/m/K. The thermal conductivity (301.92 K, 820 kPa, Liquid) was 0.07315 ± 0.00081 W/m/K, the thermal conductivity (301.95 K, 201 kPa, Gas) was 0.01381 ± 0.00047 W/m/K and the thermal conductivity (301.98 K, 101 kPa, Gas) was 0.01368 ± 0.00046 W/m/K. For the same compound, the thermal conductivity (302.06 K, 15424 kPa, Liquid) was 0.08252 ± 0.00091 W/m/K, the thermal conductivity (302.07 K, 283 kPa, Gas) was 0.01426 ± 0.00048 W/m/K and the thermal conductivity (302.13 K, 10265 kPa, Liquid) was 0.07959 ± 0.00088 W/m/K. For the same compound, the thermal conductivity (302.17 K, 5336 kPa, Liquid) was 0.0765 ± 0.00085 W/m/K, the thermal conductivity (302.2 K, 201 kPa, Gas) was 0.01376 ± 0.00047 W/m/K and the thermal conductivity (302.23 K, 21022 kPa, Liquid) was 0.08536 ± 0.00094 W/m/K. The thermal conductivity (302.24 K, 102 kPa, Gas) was 0.01362 ± 0.00046 W/m/K, the thermal conductivity (302.26 K, 867 kPa, Liquid) was 0.07328 ± 0.00082 W/m/K and the thermal conductivity (302.26 K, 10266 kPa, Liquid) was 0.07933 ± 0.00088 W/m/K. It also gave a thermal conductivity (302.28 K, 278 kPa, Gas) of 0.01416 ± 0.00048 W/m/K, a thermal conductivity (302.28 K, 835 kPa, Liquid) of 0.07308 ± 0.00081 W/m/K and a thermal conductivity (302.31 K, 5328 kPa, Liquid) of 0.07627 ± 0.00084 W/m/K. It also gave a thermal conductivity (302.38 K, 21010 kPa, Liquid) of 0.0851 ± 0.00094 W/m/K, a thermal conductivity (302.4 K, 858 kPa, Liquid) of 0.07303 ± 0.00081 W/m/K and a thermal conductivity (302.43 K, 15441 kPa, Liquid) of 0.08206 ± 0.00091 W/m/K. The thermal conductivity (302.46 K, 201 kPa, Gas) was 0.01371 ± 0.00046 W/m/K, the thermal conductivity (302.51 K, 101 kPa, Gas) was 0.01358 ± 0.00046 W/m/K and the thermal conductivity (302.51 K, 273 kPa, Gas) was 0.01407 ± 0.00048 W/m/K. The thermal conductivity (302.51 K, 345 kPa, Gas) was 0.01391 ± 0.00047 W/m/K, the thermal conductivity (302.52 K, 15424 kPa, Liquid) was 0.08203 ± 0.00091 W/m/K and the thermal conductivity (302.61 K, 10265 kPa, Liquid) was 0.07929 ± 0.00088 W/m/K. The thermal conductivity (302.67 K, 5319 kPa, Liquid) was 0.07625 ± 0.00085 W/m/K, the thermal conductivity (302.68 K, 15424 kPa, Liquid) was 0.08166 ± 0.00091 W/m/K and the thermal conductivity (302.74 K, 270 kPa, Gas) was 0.01405 ± 0.00048 W/m/K. It also gave a thermal conductivity (302.77 K, 10264 kPa, Liquid) of 0.079 ± 0.00087 W/m/K, a thermal conductivity (302.78 K, 847 kPa, Liquid) of 0.07298 ± 0.00081 W/m/K and a thermal conductivity (302.8 K, 868 kPa, Liquid) of 0.07244 ± 0.00082 W/m/K. The thermal conductivity (302.84 K, 5317 kPa, Liquid) was 0.07599 ± 0.00085 W/m/K, the thermal conductivity (302.84 K, 21005 kPa, Liquid) was 0.08503 ± 0.00093 W/m/K and the thermal conductivity (302.86 K, 345 kPa, Gas) was 0.01388 ± 0.00047 W/m/K. It also gave a thermal conductivity (302.91 K, 15440 kPa, Liquid) of 0.08218 ± 0.0009 W/m/K, a thermal conductivity (302.94 K, 321 kPa, Gas) of 0.01444 ± 0.00049 W/m/K and a thermal conductivity (302.99 K, 267 kPa, Gas) of 0.01402 ± 0.00047 W/m/K. For the same compound, the thermal conductivity (303 K, 21003 kPa, Liquid) was 0.08496 ± 0.00093 W/m/K, the thermal conductivity (303.03 K, 15420 kPa, Liquid) was 0.08154 ± 0.00091 W/m/K and the thermal conductivity (303.06 K, 201 kPa, Gas) was 0.01387 ± 0.00047 W/m/K. It also gave a thermal conductivity (303.09 K, 515 kPa, Gas) of 0.01405 ± 0.00048 W/m/K, a thermal conductivity (303.1 K, 443 kPa, Gas) of 0.01398 ± 0.00047 W/m/K and a thermal conductivity (303.15 K, Liquid) of 0.07268 ± 0.00049 W/m/K. The thermal conductivity (303.22 K, 15419 kPa, Liquid) was 0.08081 ± 0.00089 W/m/K, the thermal conductivity (303.24 K, 345 kPa, Gas) was 0.01392 ± 0.00047 W/m/K and the thermal conductivity (303.3 K, 101 kPa, Gas) was 0.01415 ± 0.00048 W/m/K. The thermal conductivity (303.42 K, 515 kPa, Gas) was 0.01408 ± 0.00048 W/m/K, the thermal conductivity (303.44 K, 443 kPa, Gas) was 0.01405 ± 0.00048 W/m/K and the thermal conductivity (303.46 K, 201 kPa, Gas) was 0.01405 ± 0.00048 W/m/K. It also gave a thermal conductivity (303.5 K, 21000 kPa, Liquid) of 0.08483 ± 0.00093 W/m/K, a thermal conductivity (303.63 K, 345 kPa, Gas) of 0.01394 ± 0.00047 W/m/K and a thermal conductivity (303.77 K, 515 kPa, Gas) of 0.01408 ± 0.00048 W/m/K. The thermal conductivity (303.8 K, 441 kPa, Gas) was 0.01404 ± 0.00048 W/m/K, the thermal conductivity (303.82 K, 515 kPa, Gas) was 0.01409 ± 0.00048 W/m/K and the thermal conductivity (303.89 K, 201 kPa, Gas) was 0.01411 ± 0.00048 W/m/K. It also gave a thermal conductivity (304.06 K, 345 kPa, Gas) of 0.01397 ± 0.00047 W/m/K, a thermal conductivity (304.14 K, 515 kPa, Gas) of 0.01407 ± 0.00048 W/m/K and a thermal conductivity (304.18 K, 102 kPa, Gas) of 0.01422 ± 0.00048 W/m/K. It also gave a thermal conductivity (304.18 K, 441 kPa, Gas) of 0.01406 ± 0.00048 W/m/K, a thermal conductivity (304.34 K, 201 kPa, Gas) of 0.01397 ± 0.00047 W/m/K and a thermal conductivity (304.53 K, 514 kPa, Gas) of 0.01408 ± 0.00048 W/m/K. The thermal conductivity (304.57 K, 442 kPa, Gas) was 0.01401 ± 0.00047 W/m/K, the thermal conductivity (304.57 K, 514 kPa, Gas) was 0.0141 ± 0.00048 W/m/K and the thermal conductivity (304.66 K, 101 kPa, Gas) was 0.0142 ± 0.00048 W/m/K. The thermal conductivity (311.41 K, 326 kPa, Gas) was 0.01522 ± 0.00051 W/m/K, the thermal conductivity (311.43 K, 200 kPa, Gas) was 0.01495 ± 0.0005 W/m/K and the thermal conductivity (311.44 K, 102 kPa, Gas) was 0.01483 ± 0.0005 W/m/K. The thermal conductivity (311.61 K, 325 kPa, Gas) was 0.01511 ± 0.00051 W/m/K, the thermal conductivity (311.65 K, 200 kPa, Gas) was 0.01482 ± 0.0005 W/m/K and the thermal conductivity (311.67 K, 102 kPa, Gas) was 0.01465 ± 0.00049 W/m/K. For the same compound, the thermal conductivity (311.83 K, 325 kPa, Gas) was 0.01504 ± 0.00051 W/m/K, the thermal conductivity (311.89 K, 200 kPa, Gas) was 0.0147 ± 0.0005 W/m/K and the thermal conductivity (311.91 K, 101 kPa, Gas) was 0.01455 ± 0.00049 W/m/K. It also gave a thermal conductivity (312.06 K, 325 kPa, Gas) of 0.015 ± 0.001 W/m/K, a thermal conductivity (312.14 K, 200 kPa, Gas) of 0.01462 ± 0.00049 W/m/K and a thermal conductivity (312.16 K, 101 kPa, Gas) of 0.01449 ± 0.00049 W/m/K.
